SMILES strings stand for the structures. Counter-ions that a name gives are not always drawn. Like-named read-outs stand apart in the source and are kept apart here.

A short description of series [1]: Metabolic stability in human liver microsomes (in vitro t1/2). The series is classed as in vitro ADME. Conditions: for half-life: human, human liver microsomes. As to the method: Human liver microsomes (20 mg/mL) were obtained from Xenotech, LLC (Lenexa, Kans.). β-nicotinamide adenine dinucleotide phosphate, reduced form (NADPH), magnesium chloride (MgCl2), and dimethyl sulfoxide (DMSO) were purchased from Sigma-Aldrich.
7.5 mM stock solutions of test compounds were prepared in DMSO. The 7.5 mM stock solutions were diluted to 12.5-50 μM in acetonitrile (ACN). The 20 mg/mL human liver microsomes were diluted to 0.625 mg/mL in 0.1 M potassium phosphate buffer, pH 7.4, containing 3 mM MgCl2. The diluted microsomes were added to wells of a 96-well deep-well polypropylene plate in triplicate. A 10 μL aliquot of the 12.5-50 μM test compound was added to the microsomes and the mixture was pre-warmed for 10 minutes. Reactions were initiated by addition of pre-warmed NADPH solution. The final reaction volume was 0.5 mL and contained 0.5 mg/mL human liver microsomes, 0.25-1.0 μM test compound, and 2 mM NADPH in 0.1 M potassium phosphate buffer, pH 7.4, and 3 mM MgCl2. The reaction mixtures were incubated at 37° C., and 50 μL aliquots were removed at 0, 5, 10, 20, and 30 minutes and added to shallow-well 96-well plates which contained 50 μL of ice-cold ACN with internal standard to stop the reactions. The plates were stored at 4° C. for 20 minutes after which 100 μL of water was added to the wells of the plate before centrifugation to pellet precipitated proteins. Supernatants were transferred to another 96-well plate and analyzed for amounts of parent remaining by LC-MS/MS using an Applied Bio-systems API 4000 mass spectrometer. The same procedure was followed for the non-deuterated counterpart of the compound of Formula B, Formula A, Formula I, Formula B-I, Formula C, or Formula E and the positive control, 7-ethoxycoumarin (1.0 μM). Testing was done in triplicate.
The in vitro t1/2s for test compounds were calculated from the slopes of the linear regression of % parent remaining (ln) vs incubation time relationship. in vitro t1/2=0.693/k k=−[slope of linear regression of % parent remaining(ln) vs incubation time]

The conditions of series [2]: intravenous, healthy male volunteers, cited from earlier work.
The conditions of series [3]: relative to mibefradil; cited from earlier work.
Setting [4] is: pH 7.4, Table 8a, 0.5 mg/mL HLM, 2 mM NADPH, 37° C., read-out: t1/2 Experiment 1.
[5] abbreviates: pH 7.4, Table 8a, 0.5 mg/mL HLM, 2 mM NADPH, 37° C., read-out: t1/2 Experiment 2.
[6] abbreviates: pH 7.4, Table 8a, average of Experiments 1 and 2, read-out: t1/2 Ave.
The mark [7] stands for this setting: pH 7.4, Table 8b, 0.5 mg/mL HLM, 2 mM NADPH, 37° C., read-out: t1/2 Experiment 1.
Where [8] appears, read: pH 7.4, Table 8b, 0.5 mg/mL HLM, 2 mM NADPH, 37° C., read-out: t1/2 Experiment 2.
Setting [9] is: pH 7.4, Table 8b, average of Experiments 1 and 2, read-out: t1/2 Ave.

With `[2H]C1([2H])c2cc(F)ccc2[C@H](C(C)C)[C@](CCN(C)CCCc2nc3ccccc3[nH]2)(OC(=O)COC)C1([2H])[2H]` [Compound 500, (1S,2S)-2-(2-((3-(1H-Benzo[d]imidazol-2-yl)propyl)(methyl)amino)ethyl)-3,3,4,4-tetradeutero-6-fluoro-1-isopropyl-1,2,3,4-tetrahydronaphthalen-2-yl 2-methoxyacetate], the “half life (t1/2) shorter than that of mibefradil” value in series [1] (HLM, from Table 8a) is given as “approximately 44%”. The half-life in series [1] (setting [4]) turned out to be 4.61 min; in series [1] (setting [5]), 4.98 min; in series [1] (setting [6]), 4.79 min.
Take `[2H]C([2H])([2H])N(CC[C@]1(OC(=O)COC)[C@@H](C(C)C)c2ccc(F)cc2C([2H])([2H])C1([2H])[2H])C([2H])([2H])C([2H])([2H])C([2H])([2H])c1nc2ccccc2[nH]1` [Compound 703a, (1S,2S)-2-(2-((3-(1H-Benzo[d]imidazol-2-yl)-1,1,2,2,3,3-hexadeuteropropyl)(trideuteromethyl)-amino)ethyl)-3,3,4,4-tetradeutero-6-fluoro-1-isopropyl-1,2,3,4-tetrahydronaphthalen-2-yl 2-methoxyacetate]: the half-life in series [1] (setting [4]) was 7.17 min; in series [1] (setting [5]), 7.72 min; in series [1] (setting [6]), 7.45 min.
As for `[2H]C1([2H])c2cc(F)ccc2[C@H](C(C)C)[C@](CCN(C)CCCc2nc3ccccc3[nH]2)(OC(=O)C2CC2)C1([2H])[2H]` [Compound 704a, (1S,2S)-2-(2-((3-(1H-Benzo[d]imidazol-2-yl)propyl)(methyl)amino)ethyl)-3,3,4,4-tetradeutero-6-fluoro-1-isopropyl-1,2,3,4-tetrahydronaphthalen-2-yl cyclopropanecarboxylate], the half-life in series [1] (setting [7]) turned out to be 6.16 min; in series [1] (setting [8]), 6.6 min; in series [1] (setting [9]), 6.38 min.
`[2H]C([2H])([2H])N(CC[C@]1(OC(=O)C2CC2)[C@@H](C(C)C)c2ccc(F)cc2C([2H])([2H])C1([2H])[2H])C([2H])([2H])C([2H])([2H])C([2H])([2H])c1nc2ccccc2[nH]1` [Compound 707a, (1S,2S)-2-(2-((3-(1H-Benzo[d]imidazol-2-yl)-1,1,2,2,3,3-hexadeuteropropyl)(trideuteromethyl)-amino)ethyl)-3,3,4,4-tetradeutero-6-fluoro-1-isopropyl-1,2,3,4-tetrahydronaphthalen-2-yl cyclopropanecarboxylate]: the half-life in series [1] (setting [7]) was 7.27 min; in series [1] (setting [8]), 7.03 min; in series [1] (setting [9]), 7.15 min.
Consider `COCC(=O)O[C@]1(CCN(C)CCCc2nc3ccccc3[nH]2)CCc2cc(F)ccc2[C@@H]1C(C)C` [Mibefradil, (1S,2S)-2-(2-((3-(2-benzimidazolylpropyl)methylamino)ethyl)-6-fluoro-1,2,3,4-tetrahydro-1-isopropyl-2-naphthyl methoxyacetatedihydrochloride, reference compound], for which the half-life in series [1] (setting [4]) worked out at 8.49 min; in series [1] (setting [5]), 8.55 min; in series [1] (setting [6]), 8.52 min. Besides, the bilirubin entry in series [2] (in all cases) is listed as “dose-dependent increase”. For the same molecule, in series [2] (in two cases), the plasma haptoglobin result is on record as “severe decrease”.
Turning to `CC(C)[C@H]1c2ccc(F)cc2CC[C@@]1(CCN(C)CCCc1nc2ccccc2[nH]1)OC(=O)C1CC1` [NNC 55-0396, reference compound], the figures for the half-life in series [1] (setting [7]), in series [1] (setting [8]) and in series [1] (setting [9]) were 6.58 min, 6.55 min and 6.56 min, respectively.
Take `CC(C)C1c2ccc(F)cc2CCC1(O)CCN(C)CCCc1nc2ccccc2[nH]1` (stereo not shown) [Ro 40-5966]: in series [3], the “pharmacologic effect of the metabolite as share of that of the parent” value was “approximately 10%”.

The values are drawn from US9273009B2, “Tetrahydronaphthalene derivatives” (Concert Pharmaceuticals Inc., priority 2010, dated 2016).
